Assay [1] concerns the target Sodium-dependent dopamine transporter (Rattus norvegicus, UniProt P23977). Briefly: Inhibitory activity against Dopamine transporter using 0.5 nM [3H]WIN-35428 as radioligand.
Assay [2] has as its target Norepinephrine transporter (Rattus norvegicus, UniProt Q9WTR4). Briefly: Inhibitory activity against Norepinephrine transporter using 0.5 nM [3H]-radioligand.
Assay [3] has as its target Sodium-dependent serotonin transporter (Rattus norvegicus, UniProt P31652). Briefly: Inhibitory activity against Serotonin transporter using 0.2 nM [3H]paroxetine as radioligand.

Our source for the IC50 values is ChEMBL document CHEMBL1129994, “Synthesis and transporter binding properties of 2,3-diphenyltropane stereoisomers. Comparison to 3beta-phenyltropane-2beta-carboxylic acid esters” (J Med Chem, 1997).

Chain of Norepinephrine transporter (Q9WTR4 whole entry): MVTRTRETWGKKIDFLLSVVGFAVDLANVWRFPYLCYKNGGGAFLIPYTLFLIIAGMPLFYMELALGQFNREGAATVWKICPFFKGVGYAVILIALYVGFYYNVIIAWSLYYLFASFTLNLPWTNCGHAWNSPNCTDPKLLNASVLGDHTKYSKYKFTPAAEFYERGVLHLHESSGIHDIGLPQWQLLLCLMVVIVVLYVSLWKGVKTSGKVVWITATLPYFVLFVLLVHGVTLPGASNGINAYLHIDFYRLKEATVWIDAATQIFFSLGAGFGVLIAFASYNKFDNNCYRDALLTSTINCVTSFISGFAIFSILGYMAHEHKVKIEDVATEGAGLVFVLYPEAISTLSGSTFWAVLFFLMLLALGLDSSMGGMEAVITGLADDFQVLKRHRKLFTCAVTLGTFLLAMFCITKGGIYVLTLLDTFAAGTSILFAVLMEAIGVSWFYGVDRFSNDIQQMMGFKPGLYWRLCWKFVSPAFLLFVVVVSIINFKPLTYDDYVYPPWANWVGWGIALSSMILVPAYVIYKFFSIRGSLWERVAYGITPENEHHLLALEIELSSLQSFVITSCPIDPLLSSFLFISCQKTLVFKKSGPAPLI
Chain of Sodium-dependent dopamine transporter (P23977 whole entry): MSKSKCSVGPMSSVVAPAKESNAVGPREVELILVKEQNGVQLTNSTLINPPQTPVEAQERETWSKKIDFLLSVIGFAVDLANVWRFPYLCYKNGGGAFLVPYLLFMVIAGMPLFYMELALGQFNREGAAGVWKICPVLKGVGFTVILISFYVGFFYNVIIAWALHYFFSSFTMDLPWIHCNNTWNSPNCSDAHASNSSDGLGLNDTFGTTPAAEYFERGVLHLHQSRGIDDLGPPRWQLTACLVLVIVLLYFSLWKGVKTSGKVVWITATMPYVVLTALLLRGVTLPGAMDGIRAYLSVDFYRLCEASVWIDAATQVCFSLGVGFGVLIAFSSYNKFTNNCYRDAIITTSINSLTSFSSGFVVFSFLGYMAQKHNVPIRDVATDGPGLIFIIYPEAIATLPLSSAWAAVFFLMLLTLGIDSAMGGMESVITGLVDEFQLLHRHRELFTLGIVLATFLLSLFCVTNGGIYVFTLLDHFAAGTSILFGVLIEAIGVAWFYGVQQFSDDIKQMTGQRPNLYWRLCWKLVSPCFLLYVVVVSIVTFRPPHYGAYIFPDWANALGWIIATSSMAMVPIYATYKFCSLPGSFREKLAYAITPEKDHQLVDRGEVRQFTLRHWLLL
Chain of Sodium-dependent serotonin transporter (P31652 whole entry): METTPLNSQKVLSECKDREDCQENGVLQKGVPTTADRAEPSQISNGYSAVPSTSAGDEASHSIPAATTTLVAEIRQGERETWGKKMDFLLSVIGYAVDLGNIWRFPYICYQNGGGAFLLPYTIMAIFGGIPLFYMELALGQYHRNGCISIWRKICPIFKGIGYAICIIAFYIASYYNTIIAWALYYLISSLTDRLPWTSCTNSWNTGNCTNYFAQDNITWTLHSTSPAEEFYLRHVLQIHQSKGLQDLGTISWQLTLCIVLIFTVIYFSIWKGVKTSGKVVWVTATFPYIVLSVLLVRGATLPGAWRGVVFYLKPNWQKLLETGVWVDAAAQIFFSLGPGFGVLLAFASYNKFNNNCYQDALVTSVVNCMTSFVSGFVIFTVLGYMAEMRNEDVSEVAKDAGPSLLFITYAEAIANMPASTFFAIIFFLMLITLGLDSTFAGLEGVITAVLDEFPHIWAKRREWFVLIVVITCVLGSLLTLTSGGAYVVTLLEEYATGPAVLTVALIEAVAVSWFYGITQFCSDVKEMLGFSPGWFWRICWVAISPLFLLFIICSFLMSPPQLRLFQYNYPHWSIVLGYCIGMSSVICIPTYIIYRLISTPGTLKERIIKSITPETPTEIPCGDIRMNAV

As usually defined, the IC50 is the point on the concentration scale where inhibition reaches its midpoint. Lower therefore signals inhibition by little substance. In the case of `CN1[C@@H]2CC[C@@H]1C(O)(c1ccccc1)C(c1ccccc1)C2` (mixture of isomers), the concentration for half-maximal inhibition (IC50) is 2.86 µM in assay [1], over 175 µM in assay [2] and 37.2 µM in assay [3].

For the compound `CN1C2CCC1C(c1ccccc1)=C(c1ccccc1)C2` (racemic), the half-inhibitory concentration (IC50) is 0.55 µM in assay [1], 21.4 µM in assay [2] and 47.8 µM in assay [3].

On to `CN1[C@@H]2CC[C@H]1[C@H](c1ccccc1)[C@H](c1ccccc1)C2` (racemic), for which the IC50 in assay [2] worked out at 2.77 µM; in assay [3], 18.6 µM.

Take `CN1[C@@H]2CC[C@H]1[C@@H](c1ccccc1)[C@@H](c1ccccc1)C2` (racemic): the IC50 in assay [1] was found to be 0.028 µM; in assay [2] it was 2.67 µM; in assay [3], 34.7 µM.
